Measured values published in patent publication US20020198189A1, “New use” (priority 2000, published 2002).

melting point: 166 to 167 °C
Compound: CCCC1c2nc[nH]c2CCN1C(=O)OCc1ccccc1.O=C(O)C(F)(F)F (stereo not shown)
